# According to patent US20250008956A1, “COMPOSITIONS AND A METHOD OF IMPROVING PLANT HEALTH AND CONTROLLING INSECTS” (UPL LIMITED, priority 2021, published 2025):
# What was measured:
# Type in all cases: in vivo
# rice crop [1] = assay: Dead heart count in rice crop; conditions: GR, g a.i./ha: Flupyrimin 150, Cartap 1000, Cartap + EMA 581, Fipronil 60; for Dead hearts (count) 7 DAA: 7 days after application; for Dead hearts (count) 14 DAA: 14 days after application; for Dead hearts (count) 21 DAA: 21 days after application; for Dead hearts (count) 28 DAA: 28 days after application; for Dead hearts (count) Pre-count: pre-count before application
# From the text: (§1) Injury in plants is often first noticed when the youngest partially unfurled leaf of the plant begins to whiter and die, resulting in a condition called dead heart. Dead hearts can be caused by any stem borer. Typical bore holes will be seen on the stem. Usually, a single larva is seen inside the stem. It remains inside the stem and feeds on the internal contents. The shoot of the affected plant can be pulled off easily, a symptom known as dead heart. At maturity, the grains become chaffy, which is known as white ear and eventually the whole plant finally dies.
# (§2) The phytotonic effect of flupyrimin in rice crop in terms of the dead heart count, number of ears, productive tillers/hill and the hill stability were determined.
# The observations were made at 7DAA, 14 DAA, 21 DAA and 28 DAA (days after application).
# rice crop [2] = assay: Number of tillers and productive tillers per hill in rice crop; conditions: for No. of tillers/hill at 45 DAA / No. of productive tillers/hill at heading: rice, GR, g a.i./ha: Flupyrimin 150, Cartap 1000, Cartap + EMA 581, Fipronil 60
# rice crop [3] = assay: White ear count in rice crop; conditions: GR, g a.i./ha: Flupyrimin 150, Cartap 1000, Cartap + EMA 581, Fipronil 60
# From the text: as §1, §2
# wheat [4] = assay: % germination of wheat seed after seed treatment; conditions: seed treatment 500 g/L FS
# Method: The present inventors have observed the phytotonic effect of flupyrimin in wheat by determining the % germination, plant height, root length (cm) and plant vigor The seeds were treated with 500 g/L flupyrimin flowable concentrate (FS) formulation. […]
# rice = assay: Hill stability test (tiller sturdiness, girth) in rice; conditions: flupyrimin composition (2% GR)
# Method: The hill stability test was performed to determine the tiller strength of the hill. Accordingly, rice was subjected to flupyrimin treatment at 23 days after transplanting (DAT) and observations were taken at 20 DAA (days after application).
# Hill stability is an important plant growth feature, as it protects the crop from lodging. It becomes especially important in tall varieties and in areas prone to high winds, cyclones, heavy rains etc. Due to hill stability, the plant is able to sustain the natural forces. Hill stability is also important in case of high pest and disease pressure, which makes the plant weak and loses the tiller strength.
# wheat [5] = assay: Yield and test weight in wheat after seed treatment; design: Test weight (1000 grain weight): unit not given here
# [6] = tested on: Nilaparvata lugens BPH (Brown plant hopper); assay: Brown plant hopper infestation after application; conditions: up-to 45 Days After application of composition comprising flupyrimin and/or a salt thereof
# mustard = assay: Plant height, root length and plant vigor in mustard after seed treatment; conditions: 500 g/L FS
# Method: (§3) The present inventors have observed the phytotonic effect of flupyrimin in mustard seeds by determining the % germination, plant height, root length (cm) and plant vigor. The seeds were treated with 500 g/L flupyrimin flowable concentrate (FS) formulation. The observations were made at 30 DAS and 45 DAS (days after seeding).
# wheat [7] = assay: Plant height, root length, tillers and plant vigor in wheat after seed treatment
# Method: as §3, with “wheat” for “mustard seeds”, “vigor” for “vigor.”
# [8] = 1.2 g AI/kg of seed (2.4 ml/kg)
# [9] = 2.0 g AI/kg of seed (4.0 ml/kg)
smiles,measurement,setting,value
CN(C)C(CSC(N)=O)CSC(N)=O [Cartap],Dead hearts (count) 7 DAA,rice crop [1],0.21 count
same,Dead hearts (count) 14 DAA,rice crop [1],1.54 count
same,Dead hearts (count) 21 DAA,rice crop [1],3.08 count
same,Dead hearts (count) 28 DAA,rice crop [1],2.17 count
same,Dead hearts (count) Pre-count,rice crop [1],0.00 count
same,No. of tillers/hill at 45 DAA,rice crop [2],18.07
same,No. of productive tillers/hill at heading,rice crop [2],13.77
same,White ear/hill at heading,rice crop [3],2.33
N#Cc1nn(-c2c(Cl)cc(C(F)(F)F)cc2Cl)c(N)c1[S+]([O-])C(F)(F)F (centres unmarked) [Fipronil],Dead hearts (count) 7 DAA,rice crop [1],0.00 count
same,Dead hearts (count) 14 DAA,rice crop [1],0.40 count
same,Dead hearts (count) 21 DAA,rice crop [1],2.19 count
same,Dead hearts (count) 28 DAA,rice crop [1],1.24 count
same,Dead hearts (count) Pre-count,rice crop [1],0.00 count
same,No. of tillers/hill at 45 DAA,rice crop [2],19
same,No. of productive tillers/hill at heading,rice crop [2],15.63
same,White ear/hill at heading,rice crop [3],1.27
"O=C(/N=c1\ccccn1Cc1ccc(Cl)nc1)C(F)(F)F [Flupyrimin, N-[(E)-1-(6-chloro-3-pyridinylmethyl)pyridin-2 (1H)-ylidene]-2,2,2-trifluoroacetamide]",% Germination of Wheat Seed 6 DAS,wheat [4]; [8],92.0%
same,% Germination of Wheat Seed 9 DAS,wheat [4]; [8],93.0%
same,% Germination of Wheat Seed 12 DAS,wheat [4]; [8],95.5%
same,% Germination of Wheat Seed 6 DAS,wheat [4]; [9],92.0%
same,% Germination of Wheat Seed 9 DAS,wheat [4]; [9],93.8%
same,% Germination of Wheat Seed 12 DAS,wheat [4]; [9],96.0%
same,Girth of tillers compared to untreated rice,rice,almost twice the girth
same,Dead hearts (count) 7 DAA,rice crop [1],0.00 count
same,Dead hearts (count) 14 DAA,rice crop [1],0.00 count
same,Dead hearts (count) 21 DAA,rice crop [1],0.04 count
same,Dead hearts (count) 28 DAA,rice crop [1],0.01 count
same,Dead hearts (count) Pre-count,rice crop [1],0.00 count
same,Test weight (1000 grain weight),wheat [5]; [8],55.3
same,Yield (Qt/ha),wheat [5]; [8],37.4 Qt/ha
same,Test weight (1000 grain weight),wheat [5]; [9],56.5
same,Yield (Qt/ha),wheat [5]; [9],37.8 Qt/ha
same,Greater number of tillers against the market standards (average),"rice crop [2]; rice crop, granular formulation",2-3
same,No. of tillers/hill at 45 DAA,rice crop [2],22.47
same,No. of productive tillers/hill at heading,rice crop [2],19.63
same,Nilaparvata lugens BPH infestation,[6],no Nilaparvata lugens BPH (Brown plant hopper) infestation is found
same,Plant Height (cm) 30 DAS,mustard; 4 g AI/kg of seed (8 ml/kg),21.7 cm
same,Plant Vigor (0-5 Index scale) 30 DAS,mustard; 4 g AI/kg of seed (8 ml/kg),5.0 0-5 Index scale
same,Root length (cm) 30 DAS,mustard; 4 g AI/kg of seed (8 ml/kg),18.2 cm
same,Plant Height (cm) 45 DAS,mustard; 4 g AI/kg of seed (8 ml/kg),93.2 cm
same,Plant Vigor (0-5 Index scale) 45 DAS,mustard; 4 g AI/kg of seed (8 ml/kg),5.0 0-5 Index scale
same,Root length (cm) 45 DAS,mustard; 4 g AI/kg of seed (8 ml/kg),20.8 cm
same,Plant Height (cm) 30 DAS,mustard; 6 g AI/kg of seed (12 ml/kg),22.8 cm
same,Plant Vigor (0-5 Index scale) 30 DAS,mustard; 6 g AI/kg of seed (12 ml/kg),5.0 0-5 Index scale
same,Root length (cm) 30 DAS,mustard; 6 g AI/kg of seed (12 ml/kg),18.3 cm
same,Plant Height (cm) 45 DAS,mustard; 6 g AI/kg of seed (12 ml/kg),95.6 cm
same,Plant Vigor (0-5 Index scale) 45 DAS,mustard; 6 g AI/kg of seed (12 ml/kg),5.0 0-5 Index scale
same,Root length (cm) 45 DAS,mustard; 6 g AI/kg of seed (12 ml/kg),21.1 cm
same,No. of tillers/plant 30 DAS,wheat [7]; [8],5.8
same,Plant Height (cm) 30 DAS,wheat [7]; [8],42.4 cm
same,Plant Vigor (0-5 Index scale) 30 DAS,wheat [7]; [8],5.0 0-5 Index scale
same,Root length (cm) 30 DAS,wheat [7]; [8],11.5 cm
same,No. of tillers/plant 45 DAS,wheat [7]; [8],6.4
same,Plant Height (cm) 45 DAS,wheat [7]; [8],57.9 cm
same,Plant Vigor (0-5 Index scale) 45 DAS,wheat [7]; [8],5.0 0-5 Index scale
same,Root length (cm) 45 DAS,wheat [7]; [8],12.3 cm
same,No. of tillers/plant 30 DAS,wheat [7]; [9],5.8
same,Plant Height (cm) 30 DAS,wheat [7]; [9],43.3 cm
same,Plant Vigor (0-5 Index scale) 30 DAS,wheat [7]; [9],5.0 0-5 Index scale
same,Root length (cm) 30 DAS,wheat [7]; [9],11.8 cm
same,No. of tillers/plant 45 DAS,wheat [7]; [9],6.5
same,Plant Height (cm) 45 DAS,wheat [7]; [9],58.1 cm
same,Plant Vigor (0-5 Index scale) 45 DAS,wheat [7]; [9],5.0 0-5 Index scale
same,Root length (cm) 45 DAS,wheat [7]; [9],12.7 cm
same,White ear/hill at heading,rice crop [3],0.17
